Experimental data from patent US20070027184A1, “Multicyclic sulfonamide compounds as inhibitors of histone deacetylase for the treatment of disease” (KALYPSYS, INC., priority 2005, published 2007).
Read-outs that look alike come from different tables or passages of the source.

Legend:
HDAC in cells = experiment: Cellular IC50 (cellular histone hyperacetylation / differential cytotoxicity assays); type: cell-based
Description: These two secondary assays evaluates a compound's ability to inhibit HDAC in cells by measuring cellular histone acetylation levels. The cytoblot facilitates quantitative EC50 information for cellular HDAC inhibition. Transformed cell lines (e.g. HeLa, A549, MCF-7) are cultured under standard media and culture conditions prior to plating.
Cells (approx. 2,500/well) are allowed to adhere 10-24 hours to wells of a 384-well Greiner PS assay plate in media containing 1-5% serum. Cells are treated with appropriate compound and specific concentrations for 0 to 24 hours. Cells are washed once with PBS (60 ul) and then fixed (95% ethanol, 5% acetic acid or 2% PFA) for 1 minute at RT (30 ul). Cells are blocked with 1% BSA for 1 hour and washed and stained with antibody (e.g. anti-Acetylated Histone H3, Upstate Biotechnology), followed by washing and incubation with an appropriate secondary antibody conjugated to HRP or fluorophore. For luminescence assays, signal is generated using Luminol substrate (Santa Cruz Biotechnology) and detected using an Aquest plate reader (Molecular Devices).
HDAC inhibitors display differential cytotoxicity toward certain transformed cell lines. Cells are cultured according to standard ATCC recommended conditions that are appropriate to each cell type. Compounds were tested for their ability to kill different cell types (normal and transformed) using the ATPlite luminescence ATP detection assay system (Perkin Elmer). Assays are run in either 384-well or 1536-well Greiner PS plates. Cells (30 ul or 5 ul, respectively) are dispensed using either multichannel pipette for 384-well plates, or proprietary Kalypsys bulk liquid dispenser for 1536-well plates. Compounds added using proprietary pin-transfer device (500 nL or 5 nL) and incubated 5 to 30 hours prior to analysis. Luminescence is measured using Aquest plate reader (Molecular Devices).

HDAC = experiment: In vitro HDAC-inhibition assay (Fluor de Lys); type: biochemical
Description: This assay measures a compound's ability to inhibit acetyl-lysine deacetylation in vitro and was used as both a primary screening method as well as for IC50 determinations of confirmed inhibitors. The assay is performed in vitro using an HDAC enzyme source (e.g. partially purified nuclear extract or immunopurified HDAC complexes) and a proprietary fluorescent substrate/developer system (HDAC Quantizyme Fluor de Lys Fluorescent Activity Assay, BIOMOL). The assay is run in 1,536-well Greiner white-bottom plates using the following volumes and order of addition:
Step 1: Enzyme (2.5 ul) source added to plate (from refrigerated container)
Step 2: Compounds (50 nl) added with pin transfer device
Step 3: Fluor de Lys (2.5 ul) substrate added, incubate at RT, 30 minutes
Step 4: Developer (5 ul) solution is added (containing TSA), to stop reaction
Step 5: Plate Reader—data collection
The deacetylated fluorophore is excited with 360 nm light and the emitted light (460 nm) is detected on an automated fluorometric plate reader (Aquest, Molecular Devices).

in vivo = conditions: female, mouse, in vivo
Description: (§1) 5×10^6 HCT-116 colorectal cancer cells were injected subcutaneously into the right flank of 4-6 week old female nude (nu/nu) mice. […] Tumor burden was determined twice weekly by measurement with calipers in 2-dimensions (length (l)×width (w)) and the volume of spheroid calculated using the formula (l×(w)^2/2). Bodyweight was measured and recorded on same day as tumor volume measurement.

[1] = test system: HCT-116 colorectal cancer cells; experiment: in vivo; conditions: for T/C value for efficacy at MTD: daily oral gavage
Description: as §1

[2] = 50 mg/kg QD orally, data from another study

SMILES	IC50 (HDAC in cells) [µM]	IC50 (HDAC) [µM]	also measured
CC(=O)SCC(=O)c1ccc(NS(=O)(=O)c2ccc3nc(N4CCCN(C)CC4)ccc3c2)nc1 [Example 20, Thioacetic acid S-(2-{6-[2-(4-methyl-[1,4]diazepan-1-yl)-quinoline-6-sulfonylamino]-pyridin-3-yl}-2-oxo-ethyl)ester]	≤ 1	–	–
CC(=O)SCC(=O)c1ccc(NS(=O)(=O)c2ccc3nc(N(C)CCCN(C)C)ccc3c2)nc1 [Example 23, Thioacetic acid S-[2-(6-{2-[(3-dimethylamino-propyl)-methyl-amino]-quinoline-6-sulfonylamino}-pyridin-3-yl)-2-oxo-ethyl]ester]	≤ 1	–	–
CC(=O)SCC(=O)c1ccc(NS(=O)(=O)c2ccc3c(c2)OCO3)nc1 [Example 6, Thioacetic acid S-{2-[6-(benzo[1,3]dioxole-5-sulfonylamino)-pyridin-3-yl]-2-oxo-ethyl}ester]	≤ 1	≤ 1	–
CC(=O)SCC(=O)c1ccc(NS(=O)(=O)c2ccc3nc(NCCN(C)C)ccc3c2)nc1 [Example 21, Thioacetic acid S-(2-{6-[2-(2-dimethylamino-ethylamino)-quinoline-6-sulfonylamino]-pyridin-3-yl}-2-oxo-ethyl)ester]	≤ 1	–	–
CC(=O)SCC(=O)c1ccc(NS(=O)(=O)c2ccc3c(c2)OCCCO3)nc1 [Example 15, Thioacetic acid S-{2-[6-(3,4-dihydro-2H-benzo[b][1,4]dioxepine-7-sulfonylamino)-pyridin-3-yl]-2-oxo-ethyl}ester]	≤ 1	–	–
O=C(CSC(=O)c1ccccc1)c1ccc(NS(=O)(=O)c2ccc3c(c2)OCCO3)nc1 [Example 12, Thiobenzoic acid S-{2-[6-(2,3-dihydro-benzo[1,4]dioxine-6-sulfonylamino)-pyridin-3-yl]-2-oxo-ethyl}ester]	≤ 1	≤ 1	–
CN(C)CCSSCC(=O)c1ccc(NS(=O)(=O)c2ccc3c(c2)OCCO3)nc1 [Example 10, 2,3-Dihydro-benzo[1,4]dioxine-6-sulfonic acid {5-[2-(2-dimethylamino-ethyldisulfanyl)-acetyl]-pyridin-2-yl}-amide]	≤ 1	≤ 1	–
CC(=O)SCC(=O)c1ccc(NS(=O)(=O)c2ccc3c(c2)CCO3)nc1 [Example 4, Thioacetic acid S-{2-[6-(2,3-dihydro-benzofuran-5-sulfonylamino)-pyridin-3-yl]-2-oxo-ethyl}ester]	≤ 1	–	–
O=C(CSSCC(=O)c1ccc(NS(=O)(=O)c2ccc3c(c2)OCCO3)nc1)c1ccc(NS(=O)(=O)c2ccc3c(c2)OCCO3)nc1 [Example 8, 2,3-Dihydro-benzo[1,4]dioxine-6-sulfonic acid [5-(2-mercapto-acetyl)-pyridin-2-yl]-amide disulfide]	≤ 1	≤ 1	–
CC(=O)SCC(=O)c1ccc(NS(=O)(=O)c2ccc3nc(NCCCN(C)C)ccc3c2)nc1 [Example 22, Thioacetic acid S-(2-{6-[2-(3-dimethylamino-propylamino)-quinoline-6-sulfonylamino]-pyridin-3-yl}-2-oxo-ethyl)ester]	≤ 1	–	–
CC(=O)SCC(=O)c1ccc(NS(=O)(=O)c2ccc3nc(N(C)C)ccc3c2)nc1 [Example 24, Thioacetic acid S-{2-[6-(2-dimethylamino-quinoline-6-sulfonylamino)-pyridin-3-yl]-2-oxo-ethyl}ester]	≤ 1	–	–
CC(=O)SCC(=O)c1ccc(NS(=O)(=O)c2ccc3nc(N4CCN(C)CC4)ccc3c2)nc1 [Example 19, Thioacetic acid S-(2-{6-[2-(4-methyl-piperazin-1-yl)-quinoline-6-sulfonylamino]-pyridin-3-yl}-2-oxo-ethyl)ester]	≤ 1	–	–
CC(=O)SCC(=O)c1ccc(NS(=O)(=O)c2ccc3c(c2)ncn3C)nc1 [Example 2]	≤ 1	≤ 1	–
O=C(CS)c1ccc(NS(=O)(=O)c2ccc3c(c2)OCCO3)nc1 [Example 11, 2,3-Dihydro-benzo[1,4]dioxine-6-sulfonic acid[5-(2-mercapto-acetyl)-pyridin-2-yl]-amide]	≤ 1	≤ 1	–
CC(=O)SCC(=O)c1cnc(NS(=O)(=O)c2ccc3c(c2)OCCO3)nc1 [Example 7, Thioacetic acid S-{2-[2-(2,3-dihydro-benzo[1,4]dioxine-6-sulfonylamino)-pyrimidin-5-yl]-2-oxo-ethyl}ester]	> 1	≤ 1	–
CC(=O)SCC(=O)c1ccc(NS(=O)(=O)c2ccc3c(c2)OCCO3)cn1 [Example 3, Thioacetic acid S-{2-[5-(2,3-dihydro-benzo[1,4]dioxine-6-sulfonylamino)-pyridin-2-yl]-2-oxo-ethyl}ester]	≤ 1	≤ 1	–
CC(=O)SCC(=O)c1ccc(NS(=O)(=O)c2ccc3c(c2)OCCO3)nc1 [Example 1]	≤ 1	≤ 1	MTD (in vivo; daily oral gavage, highest dose without lethality or ≧20% bodyweight loss, read-out: Maximum tolerated dose (MTD)): < 100 mg/kg; Survival [1, 2]: 10/10; T/C [1, 2]: 53%; Tolerability (weight loss, mortality) ([1]; 50 mg/kg, determined previously): well tolerated; Survival ([1]; 100 mg/kg QD orally): 8/10; T/C ([1]; 100 mg/kg QD orally): 42%; Survival ([1]; 125 mg/kg QD orally): 7/10; T/C ([1]; 125 mg/kg QD orally): 29%; Survival ([1]; 175 mg/kg QD orally): 0/10; T/C ([1]; 175 mg/kg QD orally): 11%; Survival ([1]; 250 mg/kg QD orally): 2/10; T/C ([1]; 250 mg/kg QD orally): 15%; T/C value for efficacy at MTD [1]: 53%
NC(CSSCC(=O)c1ccc(NS(=O)(=O)c2ccc3c(c2)OCCO3)nc1)C(=O)O (stereo not shown) [Example 13, 2-Amino-3-{2-[6-(2,3-dihydro-benzo[1,4]dioxine-6-sulfonylamino)-pyridin-3-yl]-2-oxo-ethyldisulfanyl}-propionic acid]	≤ 1	≤ 1	–
O=C(CCCCCCC(=O)Nc1ccccc1)NO [SAHA, reference compound]	–	–	MTD (in vivo; nude (nu/nu), po): 250 mg/kg; T/C [1, 2]: 59%; T/C ([1]; 100 mg/kg QD orally): 65%; T/C ([1]; 125 mg/kg QD orally): 73%; T/C ([1]; 175 mg/kg QD orally): 41%; T/C ([1]; 250 mg/kg QD orally): 52%; T/C ([1]; 350 mg/kg QD orally): 24%; Lethality ([1]; 350 mg/kg daily oral gavage): lethality was observed; T/C ([1]; 475 mg/kg QD orally): 21%; T/C value for efficacy at MTD [1]: 52%
O=C(O)CCSCC(=O)c1ccc(NS(=O)(=O)c2ccc3c(c2)OCCO3)nc1 [Example 9, 3-{2-[6-(2,3-Dihydro-benzo[1,4]dioxine-6-sulfonylamino)-pyridin-3-yl]-2-oxo-ethylsulfanyl}propionic acid]	–	> 1	–
CC(=O)SCC(=O)c1csc(NS(=O)(=O)c2ccc3c(c2)OCCO3)n1 [Example 17, Thioacetic acid S-{2-[2-(2,3-dihydro-benzo[1,4]dioxine-6-sulfonylamino)-thiazol-4-yl]-2-oxo-ethyl}ester]	> 1	–	–
CC(=O)SCC(=O)c1ccc(NS(=O)(=O)c2ccc3ncccc3c2)cc1 [Example 5, Thioacetic acid S-{2-oxo-2-[4-(quinoline-6-sulfonylamino)-phenyl]-ethyl}ester]	≤ 1	≤ 1	–
CC(=O)SCC(=O)c1ccc(NS(=O)(=O)c2ccc3c(c2)OCCN3C)nc1 [Example 14, Thioacetic acid S-{2-[6-(4-methyl-3,4-dihydro-2H-benzo[1,4]oxazine-7-sulfonylamino)-pyridin-3-yl]-2-oxo-ethyl}ester]	≤ 1	–	–
CC(=O)SCC(=O)c1cnc(NS(=O)(=O)c2ccc3c(c2)OCCO3)s1 [Example 18, Thioacetic acid S-{2-[2-(2,3-dihydro-benzo[1,4]dioxine-6-sulfonylamino)-thiazol-5-yl]-2-oxo-ethyl}ester]	≤ 1	–	–
CC(=O)SCC(=O)c1ccc(NS(=O)(=O)c2ccc3c(c2)OCC(C)(C)CO3)nc1 [Example 16, Thioacetic acid S-{2-[6-(3,3-dimethyl-3,4-dihydro-2H-benzo[b][1,4]dioxepine-7-sulfonylamino)-pyridin-3-yl]-2-oxo-ethyl}ester]	≤ 1	–	–
